Source: patent US20080064027A1, “TEL/Etv6-mediated inhibition of cell proliferation” (priority 2002, published 2008)
Read-outs that look alike come from different tables or passages of the source.

How the values were obtained:
[1] = tested on: parent A375 cells; assay: Proliferation of parent A375 cells; settings: 4HT 1 microM
[2] = tested on: A375-Stat3-ER cells; settings: for effect on cell cycle profile: A375-Stat3-ER cells
Protocol: In brief, cells were harvested at the indicated times (24, 48 and 72 h) washed three times with ice-cold PBS and resuspended in propidium iodide buffer (1 mM sodium citrate (pH 4.0), 1.5 mM NaCl, 5 mM EDTA, 5 mM EGTA, 0.1% NP40, 4 mg/ml propidium iodide and 80 mg/ml of RNase A). After 30 min incubation in the dark on ice, cell cycle distribution was measured with a Becton Dickinson FACS can flow cytometer.

[3] = tested on: C/EBPdelta mRNA; assay: C/EBPdelta expression (quantitative PCR); assay type: cell-based; settings: quantitative PCR
Protocol: A LacZ siRNA was used as control. The designed RNA oligonucleotides were ‘blasted’ against the GENBANK/EMBL databank to ensure gene specificity. The RNA oligonucleotides were obtained commercially. Transfection with expression vectors was carried out 1 day after the siRNA transfection using Effectene.

[4] = tested on: A375-Stat3-ER cells; settings: for reduction of A375-Stat3ER cell number: 3 days
Protocol: In order to evaluate the role of Stat3 in A375 cell proliferation, A375-Stat3-ER cells were grown in the presence of OSM or 4HT and cell number determined over 3 days.

[5] = tested on: TEL; assay: TEL protein level by Western blotting; assay type: cell-based; settings: for TEL isoforms (TEL and TEL43) expression: ASER cells
Protocol: Protein analysis was carried out by Western blotting. In brief, cells were harvested in NP40 extraction buffer (50 mM Tris (pH 7.5), 1 mM EGTA, 5 mM EDTA, 120 mM NaCl, 1% NP40, 2 mM sodium orthovanadate, 50 mM sodium fluoride, 20 mM ? -glycerophosphate, 10 μg/ml leupeptin, 10 μg/ml aprotinin, and 0.5 mM phenylmethylsulfonyl fluoride) for 5 min on ice. The lysates were clarified by centrifugation and protein concentrations were determined using the Bio-Rad protein assay reagent (Bio-Rad Laboratories Gmbh, Munich, Germany). For immunoprecipitaton, equal amounts of proteins were incubated with Stat3 (C-20) from Santa Cruz Biotechnology (Santa Cruz, Calif.) for 1 hr. Following SDS-polyacrylamide gel eletrophoresis (SDS-PAGE), proteins were blotted onto polyvinylidene difluoride membranes (Boehringer Mannheim, Mannheim, Germany). After blocking with 10% horse serum (Life Technologies, Inc.) in 50 mM Tris pH 7.5, 150 mM NaCl, 0.05% Tween 20, filters were probed with specific antibodies; c-TEL, Stat3 (C-20) from Santa Cruz Biotechnology (Santa Cruz, Calif.), phospho-Stat3 (Tyr 705) from Cell Signaling Technology (Beverly, Mass.). Proteins were visualized with peroxidase-coupled secondary antibodies using the enhanced chemiluminescence detection system (Amersham Pharmacia Biotech, Little Chalfont, United Kingdom).

[6] = tested on: TEL; assay: TEL expression in human cancer cell lines; assay type: cell-based
Text: TEL is usually expressed as two protein isoforms corresponding to initiation of TEL mRNA translation at ATG codon 1 and 43 (TEL and TEL43). […] To ascertain if TEL is a natural target of Stat3, we examined its expression in human cancer cell lines in response to OSM or IL-6. […] However, TEL expression was unchanged in other cell lines, including the prostate cancer cells PC3 and LNCaP and MDA-MB-468 breast cancer cells, even though it was expected that Stat3 is activated in each of these cell lines by IL-6/OSM treatment.

[7] = tested on: Stat3; assay: TEL-Stat3 interaction, immunoprecipitation from nuclear extracts; assay type: binding
Protocol: Since the TEL DNA-binding domain is not required for repression of Stat3 activity, this Example tests the possibility that TEL interacts directly with Stat3. Extracts from nuclear-enriched fractions were prepared from control or OSM-stimulated A375 cells. […] Endogenous TEL was present in Stat3 immunoprecipitates and the levels of TEL associating with Stat3 increased in OSM-treated compared to control-treated nuclear extracts. Conversely, Stat3 is present in a TEL-containing complex, pulled down through an immobilized GGM-containing oligonucleotide, which is a binding site for TEL.

[8] = 24 h, 4HT 1 microM, OSM 100 ng/ml, control 1.48
[9] = 48 h, 4HT 1 microM, OSM 100 ng/ml, control 4.33
[10] = 72 h, 4HT 1 microM, OSM 100 ng/ml, control 7.83
[11] = nuclear lysates of OSM-stimulated A375 cells

CCC(=C(c1ccc(O)cc1)c1ccc(OCCN(C)C)cc1)c1ccccc1 [4HT, 4-hydroxytamoxifen, reference compound]
proliferation of the parent A375 cells [1]: does not affect proliferation
Apoptotic cells ([2]; 24 h): <1%
G1 (change in percentage of cells) ([2]; 24 h): +1%
G2/M (change in percentage of cells) ([2]; 24 h): +2%
S (change in percentage of cells) ([2]; 24 h): −3%
Apoptotic cells ([2]; 48 h): <1%
G2/M (change in percentage of cells) ([2]; 48 h): −6%
S (change in percentage of cells) ([2]; 48 h): +1%
G1 (change in percentage of cells) ([2]; 72 h): −1%
G2/M (change in percentage of cells) ([2]; 72 h): +1%
S (change in percentage of cells) ([2]; 72 h): 0%
Apoptotic cells ([2]; 72 h (3 days)): <1%
effect on cell cycle profile [2]: only marginally affected
entry into S phase after release of cells synchronized in G1 ([2]; A375 Stat3-ER cells): delayed relative to control cells
C/EBPdelta mRNA [3]: significantly increased
Number of Cells ([4]; 0 h (start of treatment)): 0.8 ×10^5
reduction of A375-Stat3ER cell number ([4]; 4HT 1 microM, OSM 100 ng/ml): about 40%
Number of Cells [4, 8]: 1.49 ×10^5
Number of Cells [4, 9]: 3.60 ×10^5
Number of Cells [4, 10]: 4.44 ×10^5
TEL protein level upon treatment ([5]; Stat3-ER-expressing A375 cells): strongly increased
TEL isoforms (TEL and TEL43) expression ([5]; after 24 hrs of treatment): strongly increased
TEL isoforms (TEL and TEL43) expression ([5]; within 8 hrs of 4HT addition): significantly increased

oncostatin M [OSM]
effect on cell cycle profile [2]: little effect
TEL expression ([6]; PC3, LNCaP prostate cancer cells and MDA-MB-468 breast cancer cells): unchanged
TEL expression ([6]; T47D and SKBr-3 breast cancer cells, DU145 prostate carcinoma cells, HepG2 hepatoma-derived cells): significantly increased
Number of Cells ([4]; 0 h (start of treatment)): 0.8 ×10^5
reduction of A375-Stat3ER cell number ([4]; 4HT 1 microM, OSM 100 ng/ml): about 40%
Number of Cells [4, 8]: 1.15 ×10^5
Number of Cells [4, 9]: 2.58 ×10^5
Number of Cells [4, 10]: 4.35 ×10^5
levels of TEL associating with Stat3 in Stat3 immunoprecipitates ([7]; OSM-treated compared to control-treated nuclear extracts): increased
nuclear Stat3 levels [7, 11]: expected increase in Stat3 levels
nuclear content of TEL [7, 11]: not affected
